Experimental data from US4920119A, “Triazine derivatives” (Hoffmann-La Roche Inc., priority 1986, dated 1990).

What follows are compounds tested against T1, Xanthine oxidase (Rattus norvegicus, UniProt P22985) (assay: xanthine oxidase inhibiting activity (xanthine oxidase-catalyzed oxidation of xanthine to uric acid)). Settings: xanthine oxidase from rat liver; 10^-5 molar xanthine, 0.1M tris hydrochloride pH 8.1, 30° C., uric acid formation at 293 nm.
T1 construct: Xanthine oxidase was obtained from rat liver; from tissue; host or cells: rat liver
T1 sequence (P22985 whole entry): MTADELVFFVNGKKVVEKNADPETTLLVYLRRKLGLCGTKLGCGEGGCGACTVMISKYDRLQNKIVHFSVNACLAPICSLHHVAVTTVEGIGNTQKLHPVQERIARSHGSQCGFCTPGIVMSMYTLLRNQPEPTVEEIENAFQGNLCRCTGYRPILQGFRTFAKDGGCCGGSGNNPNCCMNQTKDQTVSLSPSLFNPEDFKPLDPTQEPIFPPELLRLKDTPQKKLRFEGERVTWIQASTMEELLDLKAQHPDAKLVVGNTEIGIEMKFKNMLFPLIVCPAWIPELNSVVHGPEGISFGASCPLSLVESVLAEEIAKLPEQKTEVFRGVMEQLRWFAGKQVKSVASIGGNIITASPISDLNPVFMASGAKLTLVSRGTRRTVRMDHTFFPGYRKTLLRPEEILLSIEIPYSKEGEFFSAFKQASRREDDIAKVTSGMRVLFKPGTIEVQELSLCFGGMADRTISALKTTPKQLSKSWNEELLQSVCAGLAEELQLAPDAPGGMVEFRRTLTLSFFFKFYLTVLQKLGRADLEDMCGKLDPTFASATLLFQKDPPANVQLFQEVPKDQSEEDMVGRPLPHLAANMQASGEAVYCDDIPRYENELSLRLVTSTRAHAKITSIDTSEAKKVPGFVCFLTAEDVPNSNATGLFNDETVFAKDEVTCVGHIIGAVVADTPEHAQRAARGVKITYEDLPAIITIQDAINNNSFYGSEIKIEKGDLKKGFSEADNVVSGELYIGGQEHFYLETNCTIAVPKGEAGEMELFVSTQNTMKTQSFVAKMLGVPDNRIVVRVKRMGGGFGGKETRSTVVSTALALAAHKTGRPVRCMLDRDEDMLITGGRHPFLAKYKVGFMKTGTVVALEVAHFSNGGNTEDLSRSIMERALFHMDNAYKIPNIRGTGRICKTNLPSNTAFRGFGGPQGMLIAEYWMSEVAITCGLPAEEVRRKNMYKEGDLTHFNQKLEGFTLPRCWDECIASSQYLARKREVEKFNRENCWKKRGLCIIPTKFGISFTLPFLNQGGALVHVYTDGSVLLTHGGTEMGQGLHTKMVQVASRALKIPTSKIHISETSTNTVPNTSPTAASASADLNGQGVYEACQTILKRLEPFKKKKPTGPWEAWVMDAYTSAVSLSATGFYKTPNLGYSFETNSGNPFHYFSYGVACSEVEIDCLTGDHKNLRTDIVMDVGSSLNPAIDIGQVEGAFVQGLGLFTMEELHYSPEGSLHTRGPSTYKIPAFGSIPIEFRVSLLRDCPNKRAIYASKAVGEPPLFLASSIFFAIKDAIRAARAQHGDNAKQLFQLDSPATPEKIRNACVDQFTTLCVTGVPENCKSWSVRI
Format: biochemical
Procedure: Xanthine oxidase was obtained from rat liver according to the method described by E. Della Corte and F. Stirpe in Biochem.J. 117, 97 (1970) and was aged for at least 24 hours prior to use. Solutions of 3 ml of 0.1M aqueous tris hydrochloride buffer (pH 8.1) containing 10^-5 molar xanthine were treated with 200 μl of xanthine oxidase dissolved in 0.1M aqueous tris hydrochloride buffer (pH 8.1) and incubated at 30° C. in the presence and absence of a test substance, whereupon the formation of uric acid from xanthine was monitored by measuring the light absorption at 293 nm. The IC50 , namely that concentration of a test substance required to inhibit by 50% the xanthine oxidase-catalyzed oxidation of xanthine to uric acid, was then determined.
`O=c1[nH]nnc2c1cnn2-c1cccc(C(F)(F)F)c1` [7-(3-Trifluoromethylphenyl)-7H-pyrazolo[3,4-d]-1,2,3-triazin-4(3H)-one] was tested, and the IC50 was 35 nM.
In the case of `COc1ccc(-n2ncc3c(=O)[nH]nnc32)cc1Cl` [7-(3-chloro-4-methoxyphenyl)-7H-pyrazolo[3,4-d]-1,2,3-triazin-4(3H)-one], the IC50 is reported as 6 nM.
Compound `COc1ccc(-c2nsc3c(=O)[nH]nnc23)cc1Cl` [7-(3-chloro-4-methoxyphenyl)isothiazolo[4,5-d]-1,2,3-triazin-4(3H)-one] has an IC50 of 4 nM.
`COc1ccc(-c2nsc3c(=O)[nH]nnc23)cc1F` [7-(3-fluoro-4-methoxyphenyl)isothiazolo[4,5-d]-1,2,3-triazin-4(3H)-one] was tested, and the IC50 was 8 nM.
`COc1ccc(-c2nsc3c(=O)[nH]nnc23)cc1C(F)(F)F` [7-(3-trifluoromethyl-4-methoxyphenyl)isothiazolo[4,5-d]-1,2,3-triazin-4(3H)-one] showed an IC50 of 4 nM.
Work on `CC(=O)Nc1ccc(-c2nsc3c(=O)[nH]nnc23)cc1` [7-(4-acetamidophenyl)isothiazolo[4,5-d]-1,2,3-triazin-4(3H)-one] yielded an IC50 of 7 nM.
`CSc1ccc(-n2ncc3c(=O)[nH]nnc32)cc1` [7-(4-methylthiophenyl)-7H-pyrazolo[3,4-d]-1,2,3-triazin-4(3H)-one] gave an IC50 of 18 nM.
`O=c1[nH]nnc2c(-c3cccc(C(F)(F)F)c3)nccc12` [8-(3-trifluoromethylphenyl)pyrido[3,4-d]-1,2,3-triazin-4(3H)-one] was tested, and the IC50 was 48 nM.
